The structures appear in SMILES notation. Calls of active or inactive are those of the source. The calls are words filed in the database; no cut-off is given here.

The test system of one experiment is Escherichia coli. Nature of the experiment: Antibacterial activity against Escherichia coli at 100 ug after 24 hr by cup-plate method. In kind it is functional, organism-based.
Experiment [1] relates to Plasmodium yoelii. Nature of the experiment: Antimalarial activity against Plasmodium yoelii N-67 infected Swiss mouse assessed as parasitemia at 200 mg/kg, ip qd administered 4 days measured on day 7 (reference value: 19.5 +/- 0.76 %). It counts as functional. Particulars: route intraperitoneal.
In another experiment the test system is Staphylococcus aureus. Nature of the experiment: Antibacterial activity against Staphylococcus aureus at 100 ug after 24 hr by cup-plate method. It counts as functional, organism-based.
Experiment [2] relates to Plasmodium yoelii. The experiment can be described thus: Antimalarial activity against Plasmodium yoelii N-67 infected Swiss mouse assessed as parasitemia at 200 mg/kg, ip qd administered 4 days measured 24 hr post last treatment (reference value: 12.36 +/- 1.14 %). In kind it is functional. Particulars: route intraperitoneal.
Experiment [3] has as its system Plasmodium yoelii. Nature of the experiment: Antimalarial activity against Plasmodium yoelii N-67 infected Swiss mouse assessed as mean survival time at 200 mg/kg, ip qd administered 4 days measured 24 hr post last treatment (reference value: 8.2 +/- 0.86 days). The note with it: route intraperitoneal. It counts as functional.

Consider `Cc1nc2ccccc2c(=O)n1[C@@H](CCC(=O)O)C(=O)O`, for which the result with Escherichia coli and with Staphylococcus aureus was inactive. Also, the results for the Activity with Plasmodium yoelii [1] and with Plasmodium yoelii [2] were 18.45% and 9.6%, respectively. In addition, in the experiment on Plasmodium yoelii [3], the MST stood at 7.8 days.
In the case of `Cc1nc2ccccc2c(=O)n1-c1ccc([N+](=O)[O-])cc1`, the outcome in the experiment with Escherichia coli and in the experiment on Staphylococcus aureus was inactive. For the same compound, the Activity is reported as 25.5% in the experiment with Plasmodium yoelii [1] and 10.43% in the experiment on Plasmodium yoelii [2]. In addition, in the experiment on Plasmodium yoelii [3], the MST was determined as 7 days.
As for `Cc1nc2ccccc2c(=O)n1[C@@H](CCCCN)C(=O)O`, the result with Escherichia coli and with Staphylococcus aureus was inactive. For the same compound, the Activity in the experiment on Plasmodium yoelii [1] came to 17.5%; in the experiment on Plasmodium yoelii [2], 9.78%. Further, the MST in the experiment with Plasmodium yoelii [3] is 6.8 days.
Take `Cc1nc2ccccc2c(=O)n1CC(=O)O`: the outcome in the experiment on Escherichia coli and in the experiment with Staphylococcus aureus was inactive. Besides, the Activity with Plasmodium yoelii [1] amounted to 17.2%; in the experiment with Plasmodium yoelii [2], 10.5%. The MST with Plasmodium yoelii [3] worked out at 6.6 days.
As to `Cc1nc2ccccc2c(=O)n1-c1ccc(O)cc1`, the outcome in the experiment with Escherichia coli and with Staphylococcus aureus was inactive. Besides, the Activity with Plasmodium yoelii [1] was 16.8%; in the experiment with Plasmodium yoelii [2], 10.52%. In addition, the MST in the experiment with Plasmodium yoelii [3] stood at 6.8 days.
For the compound `Cc1nc2ccccc2c(=O)n1[C@@H](CS)C(=O)O`, the outcome in the experiment on Escherichia coli and with Staphylococcus aureus was inactive. Besides, the Activity in the experiment on Plasmodium yoelii [1] was determined as 25%; with Plasmodium yoelii [2], 11.9%. Also, in the experiment on Plasmodium yoelii [3], the MST was determined as 7.4 days.

The values are drawn from ChEMBL document CHEMBL3045079, “Synthesis, antimalarial and antibacterial activities of 3-amino acid- and aryl amine-substituted 2-methyl-3H-quinalzolin-4-ones” (2010).
